ChEMBL document CHEMBL4834464, “Fragment-based Scaffold Hopping: Identification of Potent, Selective, and Highly Soluble Bromo and Extra Terminal Domain (BET) Second Bromodomain (BD2) Inhibitors” (J Med Chem, 2021)
In brackets after ≈: the same amount, converted by molar mass.

How the values were obtained:
[1] = Solubility of the compound by CLND assay; format: physicochemical
[2] = Volume of distribution at steady state in male Wistar Han rat at 0.5 mg/kg, iv and 3 mg/kg, po measured up to 7 hrs by LC-MS/MS analysis; format: ADME, organism-based; conditions: in vivo, read-out: Vdss
[3] = Blood clearance in male Wistar Han rat at 0.5 mg/kg, iv and 3 mg/kg, po measured up to 7 hrs by LC-MS/MS analysis; format: ADME, organism-based
[4] = Half life in Beagle dog at 0.5 mg/kg, iv and 1 mg/kg, po measured up to 7 hrs by LC-MS/MS analysis; format: ADME, organism-based, Canis lupus familiaris; conditions: in vivo
[5] = Intrinsic clearance in human hepatocytes measured per gram of tissue incubated for 120 mins by LC-MS/MS method; format: ADME, cell-based, Hepatocyte; conditions: 2 h
[6] = Oral bioavailability in Beagle dog at 1 mg/kg measured up to 7 hrs by LC-MS/MS analysis; format: ADME, organism-based, Canis lupus familiaris; conditions: in vivo
[7] = Permeability of compound by AMP assay; format: ADME; conditions: not told; read-out: permeability
[8] = Oral bioavailability in male Wistar Han rat at 3 mg/kg measured up to 7 hrs by LC-MS/MS analysis; format: ADME, organism-based; conditions: in vivo
[9] = Volume of distribution at steady state in Beagle dog at 0.5 mg/kg, iv and 1 mg/kg, po measured up to 7 hrs by LC-MS/MS analysis; format: ADME, organism-based, Canis lupus familiaris; conditions: in vivo, read-out: Vdss
[10] = Distribution coefficient, logD of the compound by chromatography; format: physicochemical; conditions: octanol/water
[11] = Blood clearance in Beagle dog at 0.5 mg/kg, iv and 1 mg/kg, po measured up to 7 hrs by LC-MS/MS analysis; format: ADME, organism-based, Canis lupus familiaris
[12] = Half life in male Wistar Han rat at 0.5 mg/kg, iv and 3 mg/kg, po measured up to 7 hrs by LC-MS/MS analysis; format: ADME, organism-based; conditions: in vivo
[13] = Apparent permeability across apical to basolateral side in MDCK cells; format: ADME, cell-based, Canis lupus familiaris; conditions: dog
[14] = Intrinsic clearance in dog hepatocytes measured per gram of tissue by LC-MS/MS method; format: ADME, cell-based, Canis lupus familiaris, Hepatocyte
[15] = Intrinsic clearance in Wistar han rat hepatocytes measured per gram of tissue incubated for 60 mins by LC-MS/MS method; format: ADME, cell-based, Hepatocyte; conditions: 1 h
[16] = Solubility of the compound in FaSSIF at pH 6.5 incubated for 16 hrs by HPLC gradient analysis; format: physicochemical; conditions: for solubility: simulated gi fluid, pH 6.5, 16 h; for solubility at 16 h: FaSSIF, pH 6.5
[17] = Blood clearance in male Wistar Han rat measured up to 7 hrs by LC-MS/MS analysis; format: ADME
[18] = Oral bioavailability in male Wistar Han rat measured up to 7 hrs by LC-MS/MS analysis; format: ADME, organism-based; conditions: in vivo
[19] = Kinetic solubility of compound […] using the charged aerosol detector (CAD) analysis; format: physicochemical; conditions: read-out: Kinetic_solubility
[20] = Half life in male Wistar Han rat at 1 mg/kg, iv and 3 mg/kg, po measured up to 7 hrs by LC-MS/MS analysis; format: ADME, organism-based; conditions: in vivo
[21] = Blood clearance in male Wistar Han rat at 1 mg/kg, iv and 3 mg/kg, po measured up to 7 hrs by LC-MS/MS analysis; format: ADME, organism-based
[22] = Volume of distribution at steady state in male Wistar Han rat at 1 mg/kg, iv and 3 mg/kg, po measured up to 7 hrs by LC-MS/MS analysis; format: ADME, organism-based; conditions: in vivo, read-out: Vdss
[23] = Oral bioavailability in Beagle dog at 0.7 mg/kg measured up to 7 hrs by LC-MS/MS analysis; format: ADME, organism-based, Canis lupus familiaris; conditions: in vivo
[24] = Half life in Beagle dog at 0.5 mg/kg, iv and 0.7 mg/kg, po measured up to 7 hrs by LC-MS/MS analysis; format: ADME, organism-based, Canis lupus familiaris; conditions: in vivo
[25] = Volume of distribution at steady state in Beagle dog at 0.5 mg/kg, iv and 0.7 mg/kg, po measured up to 7 hrs by LC-MS/MS analysis; format: ADME, organism-based, Canis lupus familiaris; conditions: in vivo, read-out: Vdss
[26] = Blood clearance in Beagle dog at 0.5 mg/kg, iv and 0.7 mg/kg, po measured up to 7 hrs by LC-MS/MS analysis; format: ADME, organism-based, Canis lupus familiaris
[27] = Solubility of the compound in FaSSIF at pH 6.5 using crystalline form of sample incubated for 16 hrs by HPLC gradient analysis; format: physicochemical

Row | Compound | solubility kinetic [1] [µg/mL] | half-life [4] [h] | CLint [5] [mL/min/g] | bioavailability [6] [%] | Papp [7] [×10⁻⁶ cm/s] | bioavailability [8] [%] | Vd [9] [L/kg] | chromatographic logD [10] | clearance [11] [mL/min/kg] | CLint [14] [mL/min/g] | CLint [15] [mL/min/g] | half-life [20] [h] | clearance [21] [mL/min/kg] | Vd [22] [L/kg] | clearance [17] [mL/min/kg] | also measured
1 | CNC(=O)c1cc(C(=O)N[C@H]2CC[C@H](O)CC2)n([C@@H](C)c2ccccc2)n1 | ≥ 180 | 9 | < 0.5 | 30 | 8 | 58 | 0.9 | 2.9 | 1 | < 0.7 | 0.9 | – | – | – | – | Vd [2]: 1.1 L/kg; clearance [3]: 13 mL/min/kg; half-life [12]: 1.3 h; Papp A→B [13]: 4.1 ×10⁻⁶ cm/s; solubility [16]: 366 µg/mL (≈ 988 µM)
2 | CNC(=O)c1cc(C(=O)NC2CC2)cn(Cc2ccccc2)c1=O [GSK620] | – | – | 3.1 | – | – | – | – | – | – | – | – | – | – | – | 75 | solubility at 16 h [16]: 13 µg/mL (≈ 40 µM)
3 | CNC(=O)c1cc(C(=O)N[C@H]2CC[C@H](O)CC2)c([C@@H](C)c2ccccc2)o1 | ≥ 184 | 5.2 | < 0.5 | 84 | 4.2 | 72 | 0.8 | 2.8 | 1.9 | < 0.7 | 0.8 | 1.3 | 30 | 2.1 | – | Papp A→B [13]: 4.9 ×10⁻⁶ cm/s; solubility [16]: 827 µg/mL (≈ 2230 µM)
4 | CNC(=O)c1cc(C(=O)N[C@H]2[C@@H]3C[C@@H](O)C[C@@H]32)n([C@@H](C)c2cccc(Cl)c2)n1 | – | – | < 0.45 | – | 19.7 | 57 | – | 3.4 | – | < 0.65 | 1 | 2.9 | 21 | 2.6 | – | bioavailability [23]: 58%; solubility kinetic [19]: 175 µg/mL (≈ 434 µM); half-life [24]: 5 h; Vd [25]: 0.8 L/kg; clearance [26]: 2 mL/min/kg
5 | CNC(=O)c1cc(C(=O)N[C@H]2[C@@H]3C[C@@H](O)C[C@@H]32)c([C@@H](C)c2ccccc2)o1 | ≥ 172 | 2.5 | < 0.45 | 58 | 4.5 | 67 | 1.1 | 2.8 | 5 | < 0.65 | < 0.8 | 1.2 | 41 | 2.3 | – | solubility thermodynamic at 16 h [27]: 736 µg/mL (≈ 2000 µM)
6 | CNC(=O)c1cc(C(=O)NC2CC2)cn(Cc2cccc3[nH]ccc23)c1=O | – | – | 2.9 | – | – | – | – | – | – | – | – | – | – | – | 128 | solubility at 16 h [16]: 17 µg/mL (≈ 46.7 µM)

More lines, main results first:

Row | solubility kinetic [1] [µg/mL] | half-life [4] [h] | CLint [5] [mL/min/g] | bioavailability [6] [%] | Papp [7] [×10⁻⁶ cm/s] | bioavailability [8] [%] | Vd [9] [L/kg] | chromatographic logD [10] | clearance [11] [mL/min/kg] | CLint [14] [mL/min/g] | CLint [15] [mL/min/g] | half-life [20] [h] | clearance [21] [mL/min/kg] | Vd [22] [L/kg] | Compound | clearance [17] [mL/min/kg] | also measured
7 | – | – | 3.6 | – | 16.5 | – | – | 3.6 | – | – | – | – | – | – | CNC(=O)c1cc(C(=O)N[C@H]2[C@@H]3COC[C@@H]32)cc2c1O[C@H](CF)[C@H]2c1ccccc1 [GSK973] | 180 | bioavailability [18]: 48%
8 | – | – | 2.8 | – | – | – | – | 2.8 | – | – | – | – | – | – | CC(=O)Nc1c(F)cc(C(=O)N[C@H]2CC[C@H](O)CC2)cc1O[C@@H](C)c1ccccc1 [GSK046] | 82 | solubility kinetic [19]: ≥ 159 µg/mL; bioavailability [18]: 31%
